What was measured:
Type in all cases: biochemical
His6-PYR1 / biotin-PP2C = biological target: T1, His6-PYR1 / biotin-PP2C (Arabidopsis thaliana, UniProt O49686); assay: AlphaScreen luminescence proximity assay, PYR1-PP2C interaction; settings: for Stimulation of the interaction between PYR1 and PP2C (binding signal): 100 nM His6-PYR1, 100 nM biotin-PP2C, 100 μM agonist, normalized against a pyrabactin control
T1 construct: made in house; host or cells: E. coli is stated for PYL1, PYL2 and the PP2Cs, not expressly for PYR1
T1 sequence (O49686 1-191): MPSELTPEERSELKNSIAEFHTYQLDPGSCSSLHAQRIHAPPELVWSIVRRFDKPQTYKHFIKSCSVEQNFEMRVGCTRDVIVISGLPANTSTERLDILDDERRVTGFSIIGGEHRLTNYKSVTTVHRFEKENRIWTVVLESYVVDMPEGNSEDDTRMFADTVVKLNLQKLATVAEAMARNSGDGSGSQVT
Experimental: (§1) Mutant proteins were expressed as H6GST-fusion proteins and purified by glutathione sepharose chromatography. Protein-protein interactions were determined by luminescence proximity AlphaScreen assay. Biotinylated PP2C proteins for the luminescence proximity assay were generated by in vivo biotinylation of avitag-PP2C fusion proteins. PP2C phosphatase activity was measured by phosphate release from a SnRK2.6 phosphoprotein.
(§2) Interactions between PYR/PYL and PP2Cs were assessed by luminescence-proximity AlphaScreen technology (Perkin Elmer). Briefly, biotinylated PP2Cs were attached to streptavidin-coated donor beads, and H6-tagged PYR/PYL receptors were attached to nickel-chelated acceptor beads. The donor and acceptor beads were brought into proximity by the interactions between PYR/PYLs and PP2Cs, which were measured with and without ligands. When excited by a laser beam of 680 nm, the donor beam emits singlet oxygen that activates thioxene derivatives in the acceptor beads, which releases photons of 520-620 nm as the binding signal. The experiments were conducted with 100 nM of PP2Cs and PYR/PYL proteins in the presence of 5 ug/ml donor and acceptor beads in a buffer of 50 mM MOPS, pH7.4, 50 mM NaF, […], and 0.1 mg/ml bovine serum albumin. The results were based on an average of three experiments with standard errors typically less than 10% of the measurements.
(§3) Values were determined in different experiments and normalized against a pyrabactin control. Blank spaces mean no experimental data is available. Key (photon counts (binding signal units) in Alphascreen luminescence proximity assay): “+++ is >75,000; ++ is 25,000−75,000; + is <25,000.

His6-PYL2 / biotin-PP2C = biological target: T2, His6-PYL2 / biotin-PP2C (Arabidopsis thaliana, UniProt O80992); assay: AlphaScreen luminescence proximity assay, PYL2-PP2C interaction; settings: for Stimulation of the interaction between PYL2 and PP2C (binding signal): 100 nM His6-PYL2, 100 nM biotin-PP2C, 100 μM agonist, normalized against a pyrabactin control
T2 construct: PYL2 (residues 14-188), and HAB1 (residues 172-511) were prepared as recombinant proteins in E. coli; made in house; host or cells: E. coli
T2 sequence (O80992 14-188): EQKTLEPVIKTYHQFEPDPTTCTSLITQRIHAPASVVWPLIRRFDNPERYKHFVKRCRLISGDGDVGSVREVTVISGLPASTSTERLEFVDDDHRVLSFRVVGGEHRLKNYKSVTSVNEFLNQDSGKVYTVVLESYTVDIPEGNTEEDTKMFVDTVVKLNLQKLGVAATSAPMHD
Experimental: as §1, §2, §3

His6-PYL3 / biotin-PP2C = biological target: T3, His6-PYL3 / biotin-PP2C (Arabidopsis thaliana, UniProt Q9SSM7); assay: AlphaScreen luminescence proximity assay, PYL3-PP2C interaction; settings: for Stimulation of the interaction between PYL3 and PP2C (binding signal): 100 nM His6-PYL3, 100 nM biotin-PP2C, 100 μM agonist, normalized against a pyrabactin control
T3 construct: made in house; host or cells: not expressly stated for PYL3
T3 sequence (Q9SSM7 1-209): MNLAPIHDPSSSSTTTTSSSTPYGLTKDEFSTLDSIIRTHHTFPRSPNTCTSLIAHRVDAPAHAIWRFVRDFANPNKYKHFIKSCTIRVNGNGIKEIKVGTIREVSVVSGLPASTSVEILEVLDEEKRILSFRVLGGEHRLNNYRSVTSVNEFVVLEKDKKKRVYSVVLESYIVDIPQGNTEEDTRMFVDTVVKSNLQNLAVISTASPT
Experimental: as §1, §2, §3

His6-PYR1 / biotin-ABI2 = biological target: T4, His6-PYR1 / biotin-ABI2 (Arabidopsis thaliana, UniProt O49686); assay: AlphaScreen dose response, PYR1-ABI2 interaction; settings: 100 nM His6-PYR1, 100 nM biotin-PP2C, 0-100 μM agonist; from dose response curves
T4 construct: made in house; host or cells: E. coli (stated for the PP2Cs; not expressly for PYR1)
T4 sequence (O49686 1-191): T1 sequence (O49686 1-191)
T4 sequence (O04719 101-423 partner limits assumed): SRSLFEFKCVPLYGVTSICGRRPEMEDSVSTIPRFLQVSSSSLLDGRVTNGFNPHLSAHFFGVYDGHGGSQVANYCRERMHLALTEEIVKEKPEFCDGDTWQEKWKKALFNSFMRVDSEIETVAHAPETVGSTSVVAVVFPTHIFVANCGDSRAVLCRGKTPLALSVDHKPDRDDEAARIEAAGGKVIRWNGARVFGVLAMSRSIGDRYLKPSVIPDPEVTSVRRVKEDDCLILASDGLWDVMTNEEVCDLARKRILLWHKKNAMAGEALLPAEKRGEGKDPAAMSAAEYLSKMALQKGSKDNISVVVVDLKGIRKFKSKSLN
Experimental: as §2
(§4) The results shown in Table 5b were calculated from the dose response curves of the dependence of the interaction between 100 nM His6-PYR1 and 100 nM biotin-PP2C on the presence of 0-100 μM agonists determined by AlphaScreen luminescence proximity assay. Key (EC50 in μM): ++++=<5.0 μM; +++=5-10 μM; ++=10-20 μM; and +=>20-60 μM.

His6-PYR1 / biotin-ABI1 = biological target: T5, His6-PYR1 / biotin-ABI1 (Arabidopsis thaliana, UniProt O49686); assay: AlphaScreen dose response, PYR1-ABI1 interaction; settings: 100 nM His6-PYR1, 100 nM biotin-PP2C, 0-100 μM agonist; from dose response curves
T5 construct: made in house; host or cells: E. coli (stated for the PP2Cs; not expressly for PYR1)
T5 sequence (O49686 1-191): T1 sequence (O49686 1-191)
T5 sequence (P49597 117-434 partner limits assumed): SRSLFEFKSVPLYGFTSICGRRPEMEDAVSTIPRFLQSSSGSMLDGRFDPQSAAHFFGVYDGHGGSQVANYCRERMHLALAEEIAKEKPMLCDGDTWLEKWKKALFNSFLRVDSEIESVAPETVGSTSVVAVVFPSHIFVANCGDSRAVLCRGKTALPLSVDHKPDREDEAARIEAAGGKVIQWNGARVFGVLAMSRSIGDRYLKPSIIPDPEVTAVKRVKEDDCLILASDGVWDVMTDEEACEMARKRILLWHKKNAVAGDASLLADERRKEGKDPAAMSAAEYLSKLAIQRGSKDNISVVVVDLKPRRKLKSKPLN
Experimental: as §2, §4

[1] = purified proteins in vitro, HAB1, ABI1, ABI2

SMILES | Stimulation of the interaction between PYR1 and PP2C (binding signal) (His6-PYR1 / biotin-PP2C) | Stimulation of the interaction between PYL2 and PP2C (binding signal) (His6-PYL2 / biotin-PP2C) | Stimulation of the interaction between PYL3 and PP2C (binding signal) (His6-PYL3 / biotin-PP2C) | EC50 (His6-PYR1 / biotin-ABI2) [µM] | EC50 (His6-PYR1 / biotin-ABI1) [µM] | Promotion of PYR1 interaction with the three PP2Cs (His6-PYR1 / biotin-PP2C; [1]) | Effect on ABA-dependent PYL2 interaction with all three PP2Cs (His6-PYL2 / biotin-PP2C; in the presence of ABA, concentration-dependent) | Promotion of PYL2 interaction with the three PP2Cs (His6-PYL2 / biotin-PP2C; [1]) | Promotion of PYL3 interaction with the three PP2Cs (His6-PYL3 / biotin-PP2C; [1])
O=C1Nc2ccc(S(=O)(=O)NCc3ccccn3)c3cccc1c23 [Compound 1] | + (+ is <25,000) | + (+ is <25,000) | + (+ is <25,000) | 20 to 60 | 10 to 20 | – | – | – | –
CCOC(=O)CNS(=O)(=O)c1ccc2c3c(cccc13)C(=O)N2CC [Compound 2] | +++ (+++ is >75,000) | + (+ is <25,000) | + (+ is <25,000) | 20 to 60 | 10 to 20 | – | – | – | –
CCN1C(=O)c2cccc3c(S(=O)(=O)NC[C@@H]4CCCO4)ccc1c23 [Compound 11] | +++ (+++ is >75,000) | + (+ is <25,000) | ++ (++ is 25,000−75,000) | 20 to 60 | 10 to 20 | – | – | – | –
O=S(=O)(NCc1ccccn1)c1ccc(Br)c2ccccc12 [Pyrabactin, pyrabactin] | – | – | – | 5 to 10 | 5 to 10 | strongly promoted | inhibited | did not promote | promoted interaction
